Reference: ChEMBL document CHEMBL4725268, “Anticonvulsant and analgesic in neuropathic pain activity in a group of new aminoalkanol derivatives” (Bioorg Med Chem Lett, 2020)
Active and inactive are the calls of the source.

Columns and labels:
Enterococcus faecalis = test: Antimicrobial activity against Enterococcus faecalis ATCC 29212 assessed as reduction in bacterial growth at 0.195 to 100 ug/ml by serial dilution method; assay type: organism-based; conditions: in vivo, dose 0.195-100 µg/ml
Bacteroides fragilis = test: Antimicrobial activity against Bacteroides fragilis ATCC 25285 assessed as reduction in bacterial growth at 0.195 to 100 ug/ml by disk diffusion method; assay type: organism-based; conditions: in vivo, dose 0.195-100 µg/ml
[1] = Toxicity in mouse assessed as lethality at 30 mg/kg, ip; assay type: organism-based; conditions: in vivo
Mus musculus [2] = test: Anticonvulsant activity in ip dosed mouse assessed as protection against current-induced seizure by maximal electroshock seizure test; assay type: functional
Salmonella enterica = test: Antimicrobial activity against Salmonella enterica ATCC 51957 assessed as reduction in bacterial growth at 0.195 to 100 ug/ml by serial dilution method; assay type: organism-based; conditions: in vivo, dose 0.195-100 µg/ml
Clostridioides difficile = test: Antimicrobial activity against clinical strain Clostridium difficile assessed as reduction in bacterial growth at 0.195 to 100 ug/ml by disk diffusion method; assay type: organism-based; conditions: in vivo, dose 0.195-100 µg/ml
Staphylococcus aureus [3] = test: Antimicrobial activity against clinical strain Staphylococcus aureus assessed as reduction in bacterial growth at 0.195 to 100 ug/ml by serial dilution method; assay type: organism-based; conditions: in vivo, dose 0.195-100 µg/ml
[4] = Protection index, ratio of TD50 for toxicity in ip dosed mouse to ED50 for anticonvulsant activity in ip dosed mouse; assay type: organism-based; conditions: in vivo, read-out: PI
Staphylococcus aureus [5] = test: Antimicrobial activity against Staphylococcus aureus ATCC 25923 assessed as reduction in bacterial growth at 0.195 to 100 ug/ml by serial dilution method; assay type: organism-based; conditions: in vivo, dose 0.195-100 µg/ml
[6] = Toxicity in mouse assessed as lethality at 50 mg/kg, ip; assay type: organism-based; conditions: in vivo
Hoylesella loescheii = test: Antimicrobial activity against Prevotella loescheii ATCC 15930 assessed as reduction in bacterial growth at 0.195 to 100 ug/ml by disk diffusion method; assay type: organism-based, DSM 19665 = JCM 12249 = ATCC 15930; conditions: in vivo, dose 0.195-100 µg/ml
Escherichia coli [7] = test: Antimicrobial activity against Escherichia coli ATCC 25922 assessed as reduction in bacterial growth at 0.195 to 100 ug/ml by serial dilution method; assay type: organism-based; conditions: in vivo, dose 0.195-100 µg/ml
Escherichia coli [8] = test: Antimicrobial activity against Escherichia coli ATCC 35218 assessed as reduction in bacterial growth at 0.195 to 100 ug/ml by serial dilution method; assay type: organism-based; conditions: in vivo, dose 0.195-100 µg/ml
[9] = Toxicity in ip dosed mouse assessed as motor impairment by rotarod test; assay type: organism-based; conditions: in vivo
[10] = Toxicity in mouse assessed as lethality at 20 mg/kg, ip; assay type: organism-based; conditions: in vivo
[11] = molecular target: T1, 5-hydroxytryptamine receptor 1A (Homo sapiens, UniProt P08908); test: Binding affinity to 5-HT1A (unknown origin)
T1 sequence (P08908 whole entry): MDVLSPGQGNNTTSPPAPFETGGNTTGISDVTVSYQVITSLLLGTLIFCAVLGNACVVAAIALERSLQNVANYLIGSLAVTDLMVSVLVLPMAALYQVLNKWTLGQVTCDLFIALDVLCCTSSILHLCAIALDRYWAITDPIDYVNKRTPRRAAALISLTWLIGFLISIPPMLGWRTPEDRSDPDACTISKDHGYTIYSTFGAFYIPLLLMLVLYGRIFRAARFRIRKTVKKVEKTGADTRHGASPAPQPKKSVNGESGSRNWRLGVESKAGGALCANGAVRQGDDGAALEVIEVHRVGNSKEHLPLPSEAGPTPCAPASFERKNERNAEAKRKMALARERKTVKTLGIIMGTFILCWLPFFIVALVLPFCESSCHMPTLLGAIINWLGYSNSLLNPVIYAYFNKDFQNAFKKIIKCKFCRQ

[12] = Antimicrobial activity against clinical strain Bifidobacterium assessed as reduction in bacterial growth at 0.195 to 100 ug/ml by disk diffusion method; conditions: dose 0.195-100 µg/ml
[13] = molecular target: T2, 5-hydroxytryptamine receptor 1A (Homo sapiens) (UniProt P08908); test: Binding affinity to 5-HT1A (unknown origin) at 10^-5 M; conditions: dose 1.0 10^-5M
T2 sequence (whole entry): T1 sequence (P08908 whole entry)

[14] = Toxicity in mouse assessed as lethality at 70 mg/kg, ip; assay type: organism-based; conditions: in vivo
[15] = Drug metabolism in mouse microsome assessed as formation of monohydroxylated metabolite; assay type: ADME; conditions: microsomes
Mus musculus [16] = test: Antiallodynic activity in mouse model of OXA-induced peripheral neuropathy assessed as mean latency time to nocifensive response at 18 mg/kg, ip administered after 7 days of OXA stimulation and measured after 1 hr by cold plate method (reference value: 57.64 +/- 1.267 sec); assay type: functional
[17] = Genotoxicity in Salmonella typhimurium TA98 assessed as mutagenic index at 75 ug by AMES test; assay type: toxicity, Salmonella enterica subsp. enterica serovar Typhimurium; conditions: in vivo; dose 75 µg
[18] = Genotoxicity in Salmonella typhimurium TA100 assessed as number of revertant at 200 ug by AMES test (reference value: 64.3 to 130.7); assay type: toxicity, Salmonella enterica subsp. enterica serovar Typhimurium; conditions: in vivo; dose 200 µg
[19] = Genotoxicity in Salmonella typhimurium TA98 assessed as mutagenic index at 200 ug by AMES test; assay type: toxicity, Salmonella enterica subsp. enterica serovar Typhimurium; conditions: in vivo; dose 200 µg
[20] = Genotoxicity in Salmonella typhimurium TA98 assessed as number of revertant at 200 ug by AMES test (reference value: 8 to 8.3); assay type: toxicity, Salmonella enterica subsp. enterica serovar Typhimurium; conditions: in vivo; dose 200 µg
[21] = Genotoxicity in Salmonella typhimurium TA100 assessed as mutagenic index at 75 ug by AMES test; assay type: toxicity, Salmonella enterica subsp. enterica serovar Typhimurium; conditions: in vivo; dose 75 µg
[22] = Genotoxicity in Salmonella typhimurium TA100 assessed as number of revertant at 750 ug by AMES test (reference value: 64.3 to 130.7); assay type: toxicity, Salmonella enterica subsp. enterica serovar Typhimurium; conditions: in vivo; dose 750 µg
[23] = Antioxidant activity assessed as DPPH radical scavenging activity at 125 to 1000 uM by microplate method; assay type: functional; conditions: dose microM 125-1000
Mus musculus [24] = test: Antiallodynic activity in mouse model of OXA-induced peripheral neuropathy assessed as mean latency time to nocifensive response at 18 mg/kg, ip administered after 3 hrs of OXA stimulation and measured after 1 hr by cold plate method (reference value: 59.76 +/- 0.16 sec); assay type: functional
Mus musculus [25] = test: Antiallodynic activity in mouse model of OXA-induced peripheral neuropathy assessed as mean paw withdrawal threshold at 18 mg/kg, ip administered after 3 hrs of OXA stimulation and measured after 1 hr by Von-frey method (reference value: 3.144 +/- 0.169 g); assay type: functional
[26] = Genotoxicity in Salmonella typhimurium TA100 assessed as number of revertant at 10 ug by AMES test (reference value: 64.3 to 130.7); assay type: toxicity, Salmonella enterica subsp. enterica serovar Typhimurium; conditions: in vivo; dose 10 µg
in vitro [27] = conditions: mouse, microsomes
Description: Metabolic stability in mouse microsome assessed as intrinsic clearance

[28] = Genotoxicity in Salmonella typhimurium TA98 assessed as number of revertant at 10 ug by AMES test (reference value: 8 to 8.3); assay type: toxicity, Salmonella enterica subsp. enterica serovar Typhimurium; conditions: in vivo; dose 10 µg
[29] = Genotoxicity in Salmonella typhimurium TA100 assessed as number of revertant at 75 ug by AMES test (reference value: 64.3 to 130.7); assay type: toxicity, Salmonella enterica subsp. enterica serovar Typhimurium; conditions: in vivo; dose 75 µg
in vitro [30] = conditions: mouse, microsomes; remark: listed apart in the source
Description: Metabolic stability in mouse microsome assessed as half life

Mus musculus [31] = test: Antiallodynic activity in mouse model of OXA-induced peripheral neuropathy assessed as mean paw withdrawal threshold at 18 mg/kg, ip administered after 7 days of OXA stimulation and measured after 1 hr by Von-frey method (reference value: 3.192 +/- 0.181 g); assay type: functional
[32] = Genotoxicity in Salmonella typhimurium TA98 assessed as mutagenic index at 500 ug by AMES test; assay type: toxicity, Salmonella enterica subsp. enterica serovar Typhimurium; conditions: in vivo; dose 500 µg
[33] = Genotoxicity in Salmonella typhimurium TA98 assessed as number of revertant at 500 ug by AMES test (reference value: 8 to 8.3); assay type: toxicity, Salmonella enterica subsp. enterica serovar Typhimurium; conditions: in vivo; dose 500 µg
[34] = Genotoxicity in Salmonella typhimurium TA98 assessed as mutagenic index at 10 ug by AMES test; assay type: toxicity, Salmonella enterica subsp. enterica serovar Typhimurium; conditions: in vivo; dose 10 µg
[35] = Genotoxicity in Salmonella typhimurium TA100 assessed as mutagenic index at 10 ug by AMES test; assay type: toxicity, Salmonella enterica subsp. enterica serovar Typhimurium; conditions: in vivo; dose 10 µg
[36] = Genotoxicity in Salmonella typhimurium TA100 assessed as mutagenic index at 200 ug by AMES test; assay type: toxicity, Salmonella enterica subsp. enterica serovar Typhimurium; conditions: in vivo; dose 200 µg
[37] = Genotoxicity in Salmonella typhimurium TA100 assessed as mutagenic index at 750 ug by AMES test; assay type: toxicity, Salmonella enterica subsp. enterica serovar Typhimurium; conditions: in vivo; dose 750 µg
[38] = Genotoxicity in Salmonella typhimurium TA98 assessed as number of revertant at 75 ug by AMES test (reference value: 8 to 8.3); assay type: toxicity, Salmonella enterica subsp. enterica serovar Typhimurium; conditions: in vivo; dose 75 µg
[39] = Genotoxicity in Salmonella typhimurium TA98 assessed as mutagenic index at 750 ug by AMES test; assay type: toxicity, Salmonella enterica subsp. enterica serovar Typhimurium; conditions: in vivo; dose 750 µg
[40] = Genotoxicity in Salmonella typhimurium TA100 assessed as mutagenic index at 500 ug by AMES test; assay type: toxicity, Salmonella enterica subsp. enterica serovar Typhimurium; conditions: in vivo; dose 500 µg
[41] = Genotoxicity in Salmonella typhimurium TA100 assessed as number of revertant at 500 ug by AMES test (reference value: 64.3 to 130.7); assay type: toxicity, Salmonella enterica subsp. enterica serovar Typhimurium; conditions: in vivo; dose 500 µg
[42] = Genotoxicity in Salmonella typhimurium TA98 assessed as number of revertant at 750 ug by AMES test (reference value: 8 to 8.3); assay type: toxicity, Salmonella enterica subsp. enterica serovar Typhimurium; conditions: in vivo; dose 750 µg
Mus musculus [43] = species on record: Mus musculus; test: animal or person; conditions: Swiss, ip
Description: Anticonvulsant activity in ip dosed Swiss mouse assessed as protection against current-induced seizure by maximal electroshock seizure test

Mus musculus [44] = test: Anticonvulsant activity in ip dosed albino mouse assessed as protection against 50 mA current-induced seizure by maximal electroshock seizure test; assay type: functional

Cc1ccc(OCCOCCN[C@H](C)CO)c(C)c1
Activity (Enterococcus faecalis): Non-Toxic
Activity (Bacteroides fragilis): Non-Toxic
Activity [1]: Non-Toxic
ED50 (Mus musculus [2]): 27.4 mg/kg
Activity (Salmonella enterica): Non-Toxic
Activity (Clostridioides difficile): Non-Toxic
Activity (Staphylococcus aureus [3]): Non-Toxic
selectivity ratio [4]: 3.4
Activity (Staphylococcus aureus [5]): Non-Toxic
Activity [6]: Non-Toxic
Activity (Hoylesella loescheii): Non-Toxic
Activity (Escherichia coli [7]): Non-Toxic
Activity (Escherichia coli [8]): Non-Toxic
TD50 [9]: 93.2 mg/kg
Activity [10]: Non-Toxic
Ki [11]: 4800 nM
Activity [12]: Non-Toxic

Cc1ccc(OCCCCN[C@H](C)CO)c(C)c1
Activity (Enterococcus faecalis): Non-Toxic
Activity (Bacteroides fragilis): Non-Toxic
Activity [13]: inactive
ED50 (Mus musculus [2]): 52.5 mg/kg
Activity (Salmonella enterica): Non-Toxic
Activity (Clostridioides difficile): Non-Toxic
Activity (Staphylococcus aureus [3]): Non-Toxic
selectivity ratio [4]: 2.59
Activity (Staphylococcus aureus [5]): Non-Toxic
Activity [6]: Non-Toxic
Activity (Hoylesella loescheii): Non-Toxic
Activity (Escherichia coli [7]): Non-Toxic
Activity (Escherichia coli [8]): Non-Toxic
TD50 [9]: 136 mg/kg
Activity [12]: Non-Toxic
Activity [14]: Non-Toxic

Cc1cc(C)c(C)c(OCCOCCN[C@H]2CCCC[C@@H]2O)c1.Cl (racemic)
Drug metabolism [15]: Metabolite_Detected
Time (Mus musculus [16]): 8.86 s
Activity_index [17]: 1
Activity [18]: 70.5
Activity_index [19]: 1.4
Activity [20]: 11
ED50 (Mus musculus [2]): 18.2 mg/kg
Activity_index [21]: 1.1
Activity [22]: 56
selectivity ratio [4]: 2.91
Activity [23]: inactive
Time (Mus musculus [24]): 20.92 s
Activity [6]: Non-Toxic
Activity (Mus musculus [25]): 2.09 g
Activity [26]: 86
microsomal CLint (in vitro [27]): 93 µL/min/mg
Activity [28]: 7
Activity [29]: 80.7
half-life (in vitro [30]): 37.2 min
Activity (Mus musculus [31]): 1.907 g
Activity_index [32]: 1.1
TD50 [9]: 54.2 mg/kg
Activity [33]: 9
Activity_index [34]: 0.9
Activity_index [35]: 1.2
Activity_index [36]: 1
Ki [11]: 1200 nM
Activity_index [37]: 0.4
Activity [38]: 8

Cc1ccc(OCCCN2CCCC(O)C2)c(C)c1 (racemic)
Drug metabolism [15]: Metabolite_Detected
Activity_index [39]: 1
Activity_index [40]: 1.1
Activity_index [17]: 0.8
Activity [18]: 88.5
Activity_index [19]: 1.2
Activity [20]: 6.7
Activity [13]: inactive
ED50 (Mus musculus [2]): 34.8 mg/kg
Activity_index [21]: 1
Activity [22]: 3869.5
selectivity ratio [4]: 3.09
Activity [6]: Non-Toxic
Activity [26]: 89.5
Activity [41]: 81
microsomal CLint (in vitro [27]): 60.5 µL/min/mg
Activity [28]: 6.3
Activity [29]: 69.5
half-life (in vitro [30]): 28.6 min
Activity [42]: 3.3
Activity_index [32]: 1
TD50 [9]: 108 mg/kg
Activity [33]: 4.7
Activity_index [34]: 0.4
Activity_index [35]: 1.2
Activity_index [36]: 1.2
Activity_index [37]: 53.4
Activity [38]: 8

Cc1cccc(C)c1OCC(C)N (racemic) [MEXILETINE]
ED50 (Mus musculus [43]): 11.9 mg/kg
ED50 (Mus musculus [44]): 1.2 mg/kg
